Data: article PMC9506414, “Novel 2,6,9-Trisubstituted Purines as Potent CDK Inhibitors Alleviating Trastuzumab-Resistance of HER2-Positive Breast Cancers” (Pharmaceuticals, 2022)

Experiments:
[1] = target: T1, TAOK3 (Homo sapiens, UniProt Q9H2K8); design: method as in HMS LINCS database; details: 10 μM, ref HMS LINCS database; cited from earlier work
T1 construct: purchased Reaction Biology Corp

[2] = test system: CDK5; design: method as in HMS LINCS database; details: 10 μM, ref HMS LINCS database; cited from earlier work
[3] = target: T2, TAOK2 (Homo sapiens, UniProt Q9UL54); design: method as in HMS LINCS database; details: 10 μM, ref HMS LINCS database; cited from earlier work
T2 construct: purchased Reaction Biology Corp

[4] = target: T3, HIPK2 (Homo sapiens, UniProt Q9H2X6); design: method as in HMS LINCS database; details: 10 μM, ref HMS LINCS database; cited from earlier work
T3 construct: purchased Reaction Biology Corp

[5] = test system: CDKL1; design: method as in HMS LINCS database; details: 10 μM, ref HMS LINCS database; cited from earlier work
[6] = target: T4, TAOK1 (Homo sapiens, UniProt Q7L7X3); design: method as in HMS LINCS database; details: 10 μM, ref HMS LINCS database; cited from earlier work
T4 construct: purchased Reaction Biology Corp

[7] = test system: CDK4-cyclinD3; design: method as in HMS LINCS database; details: 10 μM, ref HMS LINCS database; cited from earlier work
[8] = test system: CDK7; design: method as in HMS LINCS database; details: 10 μM, ref HMS LINCS database; cited from earlier work
[9] = target: T5, TLK1 (Homo sapiens, UniProt Q9UKI8); design: method as in HMS LINCS database; details: 10 μM, ref HMS LINCS database; cited from earlier work
T5 construct: purchased Reaction Biology Corp

[10] = target: T6, ICK (Homo sapiens, UniProt Q9UPZ9); design: method as in HMS LINCS database; details: 10 μM, ref HMS LINCS database; cited from earlier work
T6 construct: purchased Reaction Biology Corp

[11] = test system: STK36; design: method as in HMS LINCS database; details: 10 μM, ref HMS LINCS database; cited from earlier work
[12] = target: T7, CLK2 (Homo sapiens, UniProt P49760); design: method as in HMS LINCS database; details: 10 μM, ref HMS LINCS database; cited from earlier work
T7 construct: purchased Reaction Biology Corp

[13] = target: T8, ERK5 (Homo sapiens, UniProt Q13164); design: method as in HMS LINCS database; details: 10 μM, ref HMS LINCS database; cited from earlier work
T8 construct: purchased Reaction Biology Corp

[14] = test system: CDKL5; design: method as in HMS LINCS database; details: 10 μM, ref HMS LINCS database; cited from earlier work
[15] = test system: PFTAIRE2; design: method as in HMS LINCS database; details: 10 μM, ref HMS LINCS database; cited from earlier work
[16] = target: T9, HIPK3 (Homo sapiens, UniProt Q9H422); design: method as in HMS LINCS database; details: 10 μM, ref HMS LINCS database; cited from earlier work
T9 construct: purchased Reaction Biology Corp

[17] = test system: PFPK5(P.falciparum); design: method as in HMS LINCS database; details: 10 μM, ref HMS LINCS database; cited from earlier work
[18] = target: T10, PAK3 (Homo sapiens, UniProt O75914); design: method as in HMS LINCS database; details: 10 μM, ref HMS LINCS database; cited from earlier work
T10 construct: purchased Reaction Biology Corp

[19] = test system: CDC2L5; design: method as in HMS LINCS database; details: 10 μM, ref HMS LINCS database; cited from earlier work
[20] = test system: SK-Br3 cells; assay: Combination with trastuzumab, growth inhibition; assay type: cell-based, human; details: 40 nM 30d with multiple doses of trastuzumab, 72 h
Method: (§1) Additionally, we examined a combination effect in both SK-Br3 and HCC1954 cells.
(§2) Breast-cancer cells in culture media (100 μL volume/well, 5000 SK-Br3 cells/well, 1000 HCC-1954 cells/well) were seeded in tissue culture-treated 96-well plates, and incubated at a cell incubator for 24 h. Serially diluted compounds (3-fold, 10 point from 10 mM, duplicated) were pre-plated and 500 nL of compound solutions were pin-transferred to the cells in the assay plates using pintool system (JANUS liquid handler, PerkinElmer, Waltham, MA, USA) and incubated at a cell incubator for 72 h. Cell-titer Glo^TM reagent (50 μL, Promega Corp., Madison, WI, USA) was added to each well, and the luminescence signal was read using an Envision^TM plate reader (PerkinElmer, Waltham, MA, USA). The titration curve fitting and IC50 values were generated using Prism 7.0 s/w (GraphPad, San Diego, CA, USA).

[21] = test system: HCC1954 cells; assay: Combination with trastuzumab, growth inhibition; assay type: cell-based, human; details: 40 nM 30d with multiple doses of trastuzumab, 72 h
Method: as §1, §2

[22] = target: CDK12/CyclinK (Homo sapiens, UniProt Q9NYV4); assay: Kinome-wide inhibition profiling; assay type: biochemical; design: purchased Reaction Biology Corp
Method: (§3) In vitro CDK12/cyclinK assays for all compounds and in vitro kinome-wide inhibition profiling of 30d at 10 μM were performed by a CRO company (Reaction Biology Corp., San Diego, CA, USA).

[23] = test system: PKAC-alpha; assay: Kinome-wide inhibition profiling; assay type: biochemical, human; details: 10 μM
Method: as §3

CDK12/CyclinK, sequence (Q9NYV4 whole entry): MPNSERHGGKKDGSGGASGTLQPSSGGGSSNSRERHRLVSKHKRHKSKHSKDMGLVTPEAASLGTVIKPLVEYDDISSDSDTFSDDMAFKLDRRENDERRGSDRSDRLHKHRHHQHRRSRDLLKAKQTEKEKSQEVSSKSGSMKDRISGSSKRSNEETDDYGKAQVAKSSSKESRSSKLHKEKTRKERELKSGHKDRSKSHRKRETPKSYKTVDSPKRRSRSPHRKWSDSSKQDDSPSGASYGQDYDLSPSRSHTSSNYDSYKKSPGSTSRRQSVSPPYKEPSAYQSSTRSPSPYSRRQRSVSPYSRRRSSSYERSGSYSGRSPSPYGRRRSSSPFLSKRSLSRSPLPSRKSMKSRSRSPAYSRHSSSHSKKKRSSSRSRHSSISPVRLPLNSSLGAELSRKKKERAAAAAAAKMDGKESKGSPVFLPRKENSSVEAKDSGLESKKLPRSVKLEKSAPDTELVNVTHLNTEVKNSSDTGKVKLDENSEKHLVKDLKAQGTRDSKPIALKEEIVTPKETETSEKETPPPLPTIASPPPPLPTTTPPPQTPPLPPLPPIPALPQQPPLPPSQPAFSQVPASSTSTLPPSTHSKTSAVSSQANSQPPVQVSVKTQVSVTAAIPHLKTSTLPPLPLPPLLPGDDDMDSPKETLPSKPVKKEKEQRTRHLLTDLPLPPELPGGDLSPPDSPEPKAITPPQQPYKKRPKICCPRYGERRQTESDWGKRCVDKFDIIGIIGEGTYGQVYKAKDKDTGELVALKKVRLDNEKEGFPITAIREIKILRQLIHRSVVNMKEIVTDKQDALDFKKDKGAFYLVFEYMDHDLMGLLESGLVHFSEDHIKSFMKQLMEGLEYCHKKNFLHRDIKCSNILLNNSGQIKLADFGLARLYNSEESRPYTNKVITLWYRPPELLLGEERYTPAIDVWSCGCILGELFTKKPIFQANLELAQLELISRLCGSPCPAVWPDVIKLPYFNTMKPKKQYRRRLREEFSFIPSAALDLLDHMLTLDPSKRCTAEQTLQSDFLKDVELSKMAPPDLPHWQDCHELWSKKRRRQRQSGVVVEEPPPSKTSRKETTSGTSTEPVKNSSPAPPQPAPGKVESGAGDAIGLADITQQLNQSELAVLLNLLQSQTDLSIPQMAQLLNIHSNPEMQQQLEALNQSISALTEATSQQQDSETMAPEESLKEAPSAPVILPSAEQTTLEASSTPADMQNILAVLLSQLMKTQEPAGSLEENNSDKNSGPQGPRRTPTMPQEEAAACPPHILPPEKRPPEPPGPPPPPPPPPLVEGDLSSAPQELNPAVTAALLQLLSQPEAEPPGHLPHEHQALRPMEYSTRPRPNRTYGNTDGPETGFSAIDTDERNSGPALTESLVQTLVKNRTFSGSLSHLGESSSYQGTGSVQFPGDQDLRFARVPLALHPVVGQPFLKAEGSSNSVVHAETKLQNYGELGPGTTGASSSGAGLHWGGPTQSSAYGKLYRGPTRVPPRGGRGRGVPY
CDK12/CyclinK, sequence (O75909 whole entry partner): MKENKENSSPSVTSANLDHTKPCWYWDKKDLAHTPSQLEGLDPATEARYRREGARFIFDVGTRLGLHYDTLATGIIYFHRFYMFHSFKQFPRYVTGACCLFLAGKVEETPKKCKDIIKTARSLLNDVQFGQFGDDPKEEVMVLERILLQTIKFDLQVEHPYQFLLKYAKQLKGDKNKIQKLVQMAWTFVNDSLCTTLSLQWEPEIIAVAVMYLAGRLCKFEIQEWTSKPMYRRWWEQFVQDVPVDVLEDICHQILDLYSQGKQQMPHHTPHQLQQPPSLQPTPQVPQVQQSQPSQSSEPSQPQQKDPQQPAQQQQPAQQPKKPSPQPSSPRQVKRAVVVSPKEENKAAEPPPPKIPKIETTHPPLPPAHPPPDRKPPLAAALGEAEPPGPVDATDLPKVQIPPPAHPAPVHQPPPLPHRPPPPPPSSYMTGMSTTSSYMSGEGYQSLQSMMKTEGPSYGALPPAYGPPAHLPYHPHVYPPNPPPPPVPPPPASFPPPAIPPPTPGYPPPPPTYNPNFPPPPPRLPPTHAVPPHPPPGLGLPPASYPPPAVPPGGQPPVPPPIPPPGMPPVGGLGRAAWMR
T7 sequence (P49760 whole entry): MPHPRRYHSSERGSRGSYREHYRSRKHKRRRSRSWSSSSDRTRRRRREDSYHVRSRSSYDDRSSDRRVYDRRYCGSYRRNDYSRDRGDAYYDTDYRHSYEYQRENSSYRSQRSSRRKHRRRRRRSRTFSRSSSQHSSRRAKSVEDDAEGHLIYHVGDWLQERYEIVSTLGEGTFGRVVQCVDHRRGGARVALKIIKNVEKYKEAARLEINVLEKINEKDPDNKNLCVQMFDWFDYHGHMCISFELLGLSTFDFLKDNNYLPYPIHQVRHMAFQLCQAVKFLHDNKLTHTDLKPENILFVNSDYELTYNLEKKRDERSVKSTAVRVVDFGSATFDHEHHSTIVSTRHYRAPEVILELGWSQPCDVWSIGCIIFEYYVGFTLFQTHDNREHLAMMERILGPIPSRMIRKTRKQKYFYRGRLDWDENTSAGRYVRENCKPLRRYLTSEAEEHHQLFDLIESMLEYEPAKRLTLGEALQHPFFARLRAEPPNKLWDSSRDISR
T10 sequence (O75914 whole entry): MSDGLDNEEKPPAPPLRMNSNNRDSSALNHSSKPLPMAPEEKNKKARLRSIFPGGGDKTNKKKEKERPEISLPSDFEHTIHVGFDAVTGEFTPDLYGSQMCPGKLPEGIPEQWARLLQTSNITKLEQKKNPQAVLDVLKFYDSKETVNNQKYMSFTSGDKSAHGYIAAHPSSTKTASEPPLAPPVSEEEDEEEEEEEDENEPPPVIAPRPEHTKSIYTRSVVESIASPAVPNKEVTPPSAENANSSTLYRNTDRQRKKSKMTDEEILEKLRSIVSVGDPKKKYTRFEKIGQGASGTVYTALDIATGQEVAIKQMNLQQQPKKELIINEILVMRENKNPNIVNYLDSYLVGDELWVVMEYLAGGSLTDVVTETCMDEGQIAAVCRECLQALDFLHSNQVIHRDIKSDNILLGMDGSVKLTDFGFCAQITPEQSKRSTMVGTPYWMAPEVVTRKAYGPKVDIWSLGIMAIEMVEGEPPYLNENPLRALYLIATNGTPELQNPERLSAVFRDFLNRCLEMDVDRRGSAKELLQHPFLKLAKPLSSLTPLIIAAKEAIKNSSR
T4 sequence (Q7L7X3 whole entry): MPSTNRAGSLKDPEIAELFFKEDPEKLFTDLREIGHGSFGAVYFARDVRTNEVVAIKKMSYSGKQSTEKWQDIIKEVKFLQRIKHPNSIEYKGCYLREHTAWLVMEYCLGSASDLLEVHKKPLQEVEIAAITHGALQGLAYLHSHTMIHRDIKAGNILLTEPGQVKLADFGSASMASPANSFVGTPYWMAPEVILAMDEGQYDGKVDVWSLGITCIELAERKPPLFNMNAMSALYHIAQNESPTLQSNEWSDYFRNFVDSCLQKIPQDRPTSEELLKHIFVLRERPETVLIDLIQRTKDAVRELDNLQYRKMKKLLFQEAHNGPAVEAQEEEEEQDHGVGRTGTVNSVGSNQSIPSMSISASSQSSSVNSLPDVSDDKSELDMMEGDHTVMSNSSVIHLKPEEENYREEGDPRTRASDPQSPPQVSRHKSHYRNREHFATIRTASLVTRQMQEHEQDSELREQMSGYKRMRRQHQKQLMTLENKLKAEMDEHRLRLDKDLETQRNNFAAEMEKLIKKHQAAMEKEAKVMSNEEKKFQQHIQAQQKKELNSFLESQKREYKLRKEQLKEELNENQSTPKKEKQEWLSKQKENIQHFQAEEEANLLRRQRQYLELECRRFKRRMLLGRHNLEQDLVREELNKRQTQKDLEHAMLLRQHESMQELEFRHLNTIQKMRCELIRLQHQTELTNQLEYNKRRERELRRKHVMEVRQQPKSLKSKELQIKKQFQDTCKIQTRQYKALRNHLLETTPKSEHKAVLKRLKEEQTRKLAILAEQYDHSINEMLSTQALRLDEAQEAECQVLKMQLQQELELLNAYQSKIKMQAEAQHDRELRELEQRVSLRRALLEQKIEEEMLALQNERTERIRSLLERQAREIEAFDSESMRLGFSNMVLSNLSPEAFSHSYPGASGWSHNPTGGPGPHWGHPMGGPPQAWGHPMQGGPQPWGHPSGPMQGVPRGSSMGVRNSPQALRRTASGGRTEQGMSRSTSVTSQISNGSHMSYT
T6 sequence (Q9UPZ9 whole entry): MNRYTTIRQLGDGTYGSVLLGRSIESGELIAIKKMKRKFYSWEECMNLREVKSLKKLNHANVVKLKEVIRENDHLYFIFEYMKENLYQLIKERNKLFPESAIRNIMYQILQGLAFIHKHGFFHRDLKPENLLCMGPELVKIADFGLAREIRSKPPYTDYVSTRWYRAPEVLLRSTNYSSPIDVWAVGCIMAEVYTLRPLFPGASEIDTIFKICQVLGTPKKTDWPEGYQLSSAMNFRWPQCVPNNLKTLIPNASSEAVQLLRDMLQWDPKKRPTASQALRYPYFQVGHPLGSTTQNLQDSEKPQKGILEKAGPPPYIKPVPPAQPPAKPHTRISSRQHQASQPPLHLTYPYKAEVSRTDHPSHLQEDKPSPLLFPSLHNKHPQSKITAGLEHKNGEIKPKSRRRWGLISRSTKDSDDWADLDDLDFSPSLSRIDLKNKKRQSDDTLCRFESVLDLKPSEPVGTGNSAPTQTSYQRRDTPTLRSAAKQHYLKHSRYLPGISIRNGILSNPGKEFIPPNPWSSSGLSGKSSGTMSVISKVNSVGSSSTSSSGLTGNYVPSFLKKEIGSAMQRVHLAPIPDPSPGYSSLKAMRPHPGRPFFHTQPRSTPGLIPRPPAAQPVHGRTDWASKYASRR

CCc1cnn2c(NCc3ccc[n+]([O-])c3)cc(N3CCCC[C@H]3CCO)nc12 [Dinaciclib]
% control [1]: 3.8%
% control [2]: 1.8%
% control [3]: 4.8%
% control [4]: 3.6%
% control [5]: 9.1%
% control [6]: 3.1%
% control [7]: 2.0%
% control [8]: 0.4%
% control [9]: 0.9%
% control [10]: 0.9%
% control [11]: 7.8%
% control [12]: 4.2%
% control [13]: 2.9%
% control [14]: 1.6%
% control [15]: 0.4%
% control [16]: 4.4%
% control [17]: 1.2%
% control [18]: 7.8%
% control [19]: 0.3%

CCn1cnc2c(NCc3ccc(-c4ccccn4)nc3)nc(-c3ccc(N)nc3)nc21 [Compound 30d, N-([2,2′-Bipyridin]-5-ylmethyl)-2-(6-aminopyridin-3-yl)-9-ethyl-9H-purin-6-amine]
combination effect with trastuzumab in growth inhibition [20]: modest level of synergism
combination effect with trastuzumab in growth inhibition [21]: modest level of synergism
inhibition at 10 µM [22]: > 95%
remaining activity at 10 µM [22]: 1.1%
% remaining activity [23]: 62.4%
